ChEMBL document CHEMBL1129015, “The design, binding affinity prediction and synthesis of macrocyclic angiotensin II AT1 and AT2 receptor antagonists” (Bioorg Med Chem Lett, 1996)

Columns and labels:
[1] = molecular target: T1, Type-2 angiotensin II receptor (Rattus norvegicus, UniProt P35351); assay: Inhibition of [125I]-Sar1-Ile8-Ang II binding to rat midbrain Angiotensin II receptor type 2
T1 sequence (P35351 whole entry): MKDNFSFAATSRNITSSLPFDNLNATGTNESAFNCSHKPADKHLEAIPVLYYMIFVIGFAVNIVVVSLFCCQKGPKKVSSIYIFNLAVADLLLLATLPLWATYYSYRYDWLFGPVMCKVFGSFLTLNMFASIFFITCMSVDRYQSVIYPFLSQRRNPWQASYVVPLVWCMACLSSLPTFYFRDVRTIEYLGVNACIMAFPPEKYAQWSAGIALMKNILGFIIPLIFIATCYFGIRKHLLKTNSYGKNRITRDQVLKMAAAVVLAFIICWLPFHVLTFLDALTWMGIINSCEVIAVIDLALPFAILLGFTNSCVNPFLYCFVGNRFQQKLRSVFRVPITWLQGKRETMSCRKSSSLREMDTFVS

[2] = molecular target: T2, Type-1 angiotensin II receptor (Oryctolagus cuniculus, UniProt P34976); assay: Inhibition of [125I]-Sar1-Ile8-Ang II binding to Angiotensin II receptor type 1 from rabbit aorta
T2 sequence (P34976 whole entry): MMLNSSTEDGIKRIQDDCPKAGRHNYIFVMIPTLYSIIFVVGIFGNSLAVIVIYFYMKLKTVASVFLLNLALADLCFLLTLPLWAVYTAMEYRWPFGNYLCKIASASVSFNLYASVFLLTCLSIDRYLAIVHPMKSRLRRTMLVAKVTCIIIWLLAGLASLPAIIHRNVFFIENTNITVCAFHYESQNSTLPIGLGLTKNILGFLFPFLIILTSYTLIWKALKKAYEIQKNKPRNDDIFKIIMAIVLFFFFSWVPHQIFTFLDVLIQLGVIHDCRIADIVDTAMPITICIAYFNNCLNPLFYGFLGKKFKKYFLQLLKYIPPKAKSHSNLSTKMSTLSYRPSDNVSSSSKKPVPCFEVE

| Compound | IC50 [1] [nM] | IC50 [2] [nM] |
| --- | --- | --- |
| CCCc1nc2ccc(NC(=O)NC(C)C)cc2c(=O)n1Cc1ccc(-c2ccccc2S(=O)(=O)NC(C)=O)cc1 | 630 | 8.8 |
| CCCc1nc2ccc(NC(=O)c3ccccc3)cc2c(=O)n1Cc1ccc(-c2ccccc2-c2nnn[nH]2)cc1 | 3000 | 0.4 |
| CCCc1nc2ccc(NC(=O)NC(C)C)cc2c(=O)n1Cc1ccc(-c2ccccc2S(=O)(=O)NC(=O)c2ccccc2)cc1 | 18 | 0.9 |
| CCCCCN(C(=O)c1ccccc1)c1ccc2nc(CCC)n(Cc3ccc(-c4ccccc4S(=O)(=O)NC(=O)c4ccccc4)cc3)c(=O)c2c1 | 350 | 11 |

Now from value to molecule:

| IC50 [1] [nM] | IC50 [2] [nM] | Compound |
| --- | --- | --- |
| 4000 | 23 | CCCc1nc2ccc3cc2c(=O)n1Cc1ccc(cc1)-c1ccccc1S(=O)(=O)NC(=O)CCCCCN3C(=O)OCc1ccccc1 |
| 20 | 30 | CCCc1ccc2c(c1)-c1ccc(cc1)Cn1c(CCC)nc3ccc(cc3c1=O)N(C(=O)OCc1ccccc1)CCCCCCCC(=O)NS2(=O)=O |
| 200 | 0.3 | CCCc1nc2ccc3cc2c(=O)n1Cc1ccc(cc1)-c1ccccc1S(=O)(=O)NC(=O)CCCCCCCN3 |
| 24 | 3.9 | CCCc1ccc2c(c1)-c1ccc(cc1)Cn1c(CCC)nc3ccc(cc3c1=O)NCCCCCCCC(=O)NS2(=O)=O |
| 49 | 1.3 | CCCc1nc2ccc3cc2c(=O)n1Cc1ccc(cc1)-c1ccccc1S(=O)(=O)NC(=O)CCCCCCCN3C(=O)c1ccccc1 |
| 75 | 1.5 | CCCc1nc2ccc3cc2c(=O)n1Cc1ccc(cc1)-c1ccccc1S(=O)(=O)NC(=O)CCCCCCCN3C(=O)OCc1ccccc1 |
